# Data from ChEMBL document CHEMBL5365422 (Bioorg Med Chem Lett, 2023).
# pIC50: −log10 of the molar value. Activity calls are given as the source filed them. No cut-off for these calls is given here.
# Assays:
# [1] = biological target: T1, Polyunsaturated fatty acid 5-lipoxygenase (Homo sapiens, UniProt P09917); assay: Inhibition of 5-LOX (unknown orgin) using arachidonic acid as substrate incubated for 10 mins by colorimetric assay
# T1 sequence (P09917 whole entry): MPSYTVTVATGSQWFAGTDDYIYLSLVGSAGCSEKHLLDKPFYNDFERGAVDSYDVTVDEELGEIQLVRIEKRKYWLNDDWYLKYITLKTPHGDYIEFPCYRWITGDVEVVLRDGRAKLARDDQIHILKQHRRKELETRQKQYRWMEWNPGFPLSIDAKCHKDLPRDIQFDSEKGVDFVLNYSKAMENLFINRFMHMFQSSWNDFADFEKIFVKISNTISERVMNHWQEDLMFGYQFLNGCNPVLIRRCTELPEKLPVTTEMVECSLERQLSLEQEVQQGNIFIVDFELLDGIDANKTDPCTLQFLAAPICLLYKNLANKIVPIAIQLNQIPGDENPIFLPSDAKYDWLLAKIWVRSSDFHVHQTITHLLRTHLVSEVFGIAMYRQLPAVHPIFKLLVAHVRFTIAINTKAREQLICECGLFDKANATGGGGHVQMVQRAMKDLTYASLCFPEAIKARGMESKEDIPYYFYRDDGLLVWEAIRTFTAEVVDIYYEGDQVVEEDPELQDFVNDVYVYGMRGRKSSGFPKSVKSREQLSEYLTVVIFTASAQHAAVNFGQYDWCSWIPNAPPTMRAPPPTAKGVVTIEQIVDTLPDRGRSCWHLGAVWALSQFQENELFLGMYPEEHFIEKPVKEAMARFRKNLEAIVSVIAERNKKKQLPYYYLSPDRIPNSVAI
# [2] = biological target: Albumin (Homo sapiens, UniProt P02768); assay: Binding affinity to human serum albumin in phosphate buffer at pH 7.4 incubated at 298 K
# Chain of Albumin (P02768 whole entry): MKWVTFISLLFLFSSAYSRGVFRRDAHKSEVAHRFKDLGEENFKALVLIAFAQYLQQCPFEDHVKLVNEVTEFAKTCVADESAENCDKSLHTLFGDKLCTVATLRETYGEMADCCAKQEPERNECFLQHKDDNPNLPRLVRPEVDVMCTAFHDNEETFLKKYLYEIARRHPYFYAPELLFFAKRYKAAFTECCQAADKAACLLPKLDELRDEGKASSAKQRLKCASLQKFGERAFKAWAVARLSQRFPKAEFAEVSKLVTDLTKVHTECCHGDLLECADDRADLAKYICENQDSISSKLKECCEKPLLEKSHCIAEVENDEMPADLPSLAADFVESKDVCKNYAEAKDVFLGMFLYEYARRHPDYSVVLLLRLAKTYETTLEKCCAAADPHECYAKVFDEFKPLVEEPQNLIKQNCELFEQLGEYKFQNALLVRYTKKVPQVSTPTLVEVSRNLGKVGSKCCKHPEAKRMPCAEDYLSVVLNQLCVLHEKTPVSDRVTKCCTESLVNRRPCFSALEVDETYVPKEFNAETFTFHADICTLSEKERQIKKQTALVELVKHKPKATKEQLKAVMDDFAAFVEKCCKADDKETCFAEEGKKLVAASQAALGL
# [3] = biological target: T2, Polyunsaturated fatty acid 5-lipoxygenase (Homo sapiens) (UniProt P09917); assay: Binding affinity to 5-LOX (unknown origin)
# T2 sequence (whole entry): T1 sequence (P09917 whole entry)
# [4] = Stability of compound in human plasma assessed as drug degradation at 37 degC measured after 90 mins by LC-MS analysis; format: ADME, cell-free; conditions: read-out: Drug degradation
# [5] = system: Panel NCI-60 (60 carcinoma cell lines); assay: Cytotoxicity against human Panel NCI-60 (60 carcinoma cell lines) cells assessed as reduction in cell viability; format: functional
# [6] = Solubility of the compound in PBS buffer by UV spectrum based solubility assay; format: physicochemical
# [7] = biological target: T2, Polyunsaturated fatty acid 5-lipoxygenase (Homo sapiens); assay: Competitive inhibition of 5-LOX (unknown origin) using arachidonic acid as substrate by Michaelis-Menten equation based kinetic analysis
# [8] = Half life in human liver microsome by LC-MS/MS analysis; format: ADME; conditions: liver microsomes
SMILES,pIC50 [1],K [2],K [3],metabolised at 1.5 h [4],LC50 (concentration killing 50% of cells) [5],solubility [6],inhibition [7],half-life [8]
Oc1c(Cc2cn(Cc3ccccc3)c3ccccc23)c2ccccc2n1-c1c(Cl)cccc1Cl,7.00,1.4 10^4/M,0.8 10^8/M,4%,> 100 µM,–,–,–
O=C(O)Cn1cc(Cc2c(O)n(-c3c(Cl)cccc3Cl)c3ccccc23)c2ccccc21,5.91,5.2 10^4/M,2.5 10^8/M,4%,> 100 µM,–,–,–
O=C1C(Cc2cccn2Cc2ccccc2)c2ccccc2N1c1c(Cl)cccc1Cl (stereo not drawn),6.31,1.2 10^4/M,2.4 10^8/M,4%,> 100 µM,–,–,–
O=C(O)Cn1cccc1Cc1c(O)n(-c2c(Cl)cccc2Cl)c2ccccc12,6.37,1.4 10^4/M,4.9 10^8/M,4%,> 100 µM,–,–,–
C=CCn1cc(Cc2c(O)n(-c3c(Cl)cccc3Cl)c3ccccc23)c2ccccc21,7.15,7.6 10^2/M,1.8 10^8/M,4%,> 100 µM,–,–,–
O=C1C(Cc2ccc[nH]2)c2ccccc2N1c1c(Cl)cccc1Cl (stereo not drawn),7.52,3.8 10^4/M,1.1 10^8/M,4%,> 100 µM,26 µM,Active,1.5 h
CCOC(=O)Cn1cc(Cc2c(O)n(-c3c(Cl)cccc3Cl)c3ccccc23)c2ccccc21,6.20,2.7 10^3/M,4.5 10^8/M,4%,> 100 µM,–,–,–
COc1cc(CC2C(=O)N(c3c(Cl)cccc3Cl)c3ccccc32)cc(OC)c1OC (stereo not drawn),6.59,6.9 10^4/M,0.9 10^8/M,4%,> 100 µM,–,–,–
O=C1C(Cc2c[nH]c3ccccc23)c2ccccc2N1c1c(Cl)cccc1Cl (stereo not drawn),6.51,1.1 10^3/M,4.2 10^8/M,4%,> 100 µM,–,–,–
CCOC(=O)Cn1cccc1CC1c2ccccc2N(c2c(Cl)cccc2Cl)C1O (stereo not drawn),5.88,1.4 10^4/M,1.7 10^8/M,4%,> 100 µM,–,–,–
C=CCn1cccc1CC1C(=O)N(c2c(Cl)cccc2Cl)c2ccccc21 (stereo not drawn),5.75,1.7 10^4/M,1.4 10^8/M,4%,> 100 µM,–,–,–
C#CCn1cc(Cc2c(O)n(-c3c(Cl)cccc3Cl)c3ccccc23)c2ccccc21,< 5.00,1.1 10^4/M,3.1 10^8/M,4%,> 100 µM,–,–,–
C#CCn1cccc1CC1c2ccccc2N(c2c(Cl)cccc2Cl)C1O (stereo not drawn),6.60,4.1 10^4/M,0.9 10^8/M,4%,> 100 µM,–,–,–
